Legend:
sourgrass = assay: Test D sourgrass; format: in vivo, Trichachne insularis; conditions: Preemergence, 0 to 100 scale
Outline: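 Scoring used a 0–100 visual injury scale, with 0 meaning no effect and 100 complete control, assessed 14–21 days after application alongside untreated pots. Preemergence treatments went onto sandy loam surfaces of separately potted seeds within a day of sowing.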

common poppy = assay: Test E common poppy; format: in vivo, Papaver rhoeas; conditions: Postemergence; for Plant response rating, Comnion poppy: Rate 125 g/ha
Procedure: (§1) Compounds evaluated in this test were formulated in a non-phytotoxic solvent mixture which included a surfactant and applied to plants that were in the 1- to 4-leaf stage (postemergence application). A mixture of sandy loam soil and greenhouse potting mix in a 60:40 ratio was used for the postemergence test.
(§2) Plantings of these crops and weed species were adjusted to produce plants of appropriate size for the postemergence test. All plant species were grown using normal greenhouse practices. Crop and weed species include annual bluegrass (Poa annua), blackgrass (Alopecurus myosuroides), black nightshade (Solanum nigra), chickweed (Stellaria media), common poppy (Papaver rhoeas), deadnettle (Lamium amplexicaule), downy brome (Bromus tectorum), field violet (Viola arvensis), galium (Galium aparine), green foxtail (Setaria viridis), Italian ryegrass (Lolium multiflorum), jointed goatgrass (Aegilops cylindrica), kochia (Kochia scoparia), lambsquarters (Chenopodium album), littleseed canarygrass (Phalaris minor), rape (Brassica napus), redroot pigweed (Amaranthus retroflexus), Russian thistle (Salsola kali), scentless chamomile (Matricaria inodora), spring barley (Hordeum vulgare), sugar beet (Beta vulgaris), sunflower (Helianthus annuus), ivyleaf speedwell (Veronica hederaefolia), spring wheat (Triticum aestivum), winter wheat (Triticum aestivum), wild buckwheat (Polygonum convolvulus), wild mustard (Sinapis arvensis), wild oat (Avena fatua), windgrass (Apera spica-venti) and winter barley (Hordeum vulgare).
(§3) Treated plants and untreated controls were maintained in a greenhouse for approximately 21 to 28 days, after which all treated plants were compared to untreated controls and visually evaluated. […] A dash response (-) means no test result.

rape [1] = assay: Test E rape; format: in vivo, Brassica napus; conditions: Preemergence
rape [2] = assay: Test E rape; format: in vivo, Brassica napus; conditions: Postemergence
Outline: (§4)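 For postemergence, application to 1- to 4-leaf plants growing in a 60:40 sandy loam–potting mix substrate. Formulation: non-phytotoxic solvent mixture plus surfactant. Untreated controls served as the reference for the visual rating after ~21–28 days.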

chickweed = assay: Test E chickweed; format: in vivo, Stellaria media; conditions: Preemergence
sugar beet [3] = assay: Test E sugar beet; format: in vivo, Beta vulgaris; conditions: Postemergence
Procedure: as §1, §2, §3

Russian thistle [4] = assay: Test E Russian thistle; format: in vivo, Salsola kali; conditions: Postemergence
Outline: as §4

black nightshade = assay: Test E black nightshade; format: in vivo, Solanum nigra; conditions: Postemergence
Procedure: as §1, §2, §3

annual bluegrass = assay: Test E annual bluegrass; format: in vivo, Poa annua; conditions: Preemergence
blackgrass = assay: Test E blackgrass; format: in vivo, Alopecurus myosuroides; conditions: Postemergence
Procedure: as §1, §2, §3

downy brome = assay: Test E downy brome; format: in vivo, Bromus tectorum; conditions: Postemergence; for Plant response rating, Downy brome: 0 to 100 scale; for Plant response rating, Downy brortie: Rate 250 g/ha, 0 to 100 scale (0 no effect, 100 complete control)
Procedure: as §1, §2, §3

deadnettle = assay: Test E deadnettle; format: in vivo, Lamium amplexicaule; conditions: Preemergence
Russian thistle [5] = assay: Test E Russian thistle; format: in vivo, Salsola kali; conditions: Preemergence
sugar beet [6] = assay: Test E sugar beet; format: in vivo, Beta vulgaris; conditions: Preemergence
field violet [7] = assay: Test E field violet; format: in vivo, Viola arvensis; conditions: Postemergence
Procedure: as §1, §2, §3

windgrass = assay: Test E windgrass; format: in vivo, Apera spica-venti; conditions: Postemergence, Rate 62 g/ha; 0 to 100 scale
Procedure: as §1
Plantings of these crops and weed species were adjusted to produce plants of appropriate size for the postemergence test. All plant species were grown using normal greenhouse practices. […]
Treated plants and untreated controls were maintained in a greenhouse for approximately 21 to 28 days, after which all treated plants were compared to untreated controls and visually evaluated. […]

field violet [8] = assay: Test E field violet; format: in vivo, Viola arvensis; conditions: Preemergence
littleseed canarygrass = assay: Test E littleseed canarygrass; format: in vivo, Phalaris minor; conditions: Preemergence
scentless chamomile = assay: Test E scentless chamomile; format: in vivo, Matricaria inodora; conditions: Preemergence
[9] = Rate 250 g/ha, 0 to 100 scale (0 no effect, 100 complete control)
[10] = Rate 62 g/ha, 0 to 100 scale, 0 no effect, 100 complete control
[11] = Rate 125 g/ha, 0 to 100 scale (0 no effect, 100 complete control)

## Cc1ccccc1-n1c(=O)on(C(=O)N(c2ccc(F)cc2)C(C)C)c1=O [Compound 4]
sourgrass; Rate 16 g/ha, 0 no injury, 100 complete control
  Plant response rating, Sourgrass: 50
sourgrass; Rate 32 g/ha, 0 no injury, 100 complete control
  Plant response rating, Sourgrass: 65
sourgrass; Rate 64 g/ha, 0 no injury, 100 complete control
  Sourgrass plant response rating: 90
sourgrass; Rate 125 g/ha, 0 no injury, 100 complete control
  Sourgrass plant response rating: 100
sourgrass; Rate 250 g/ha
  Plant response rating, Sourgrass: 100
sourgrass; Rate 500 g/ha
  Plant response rating, Sourgrass: 100

## C=CCn1c(=O)on(C(=O)N(c2ccccc2)C(C)C)c1=O [Compound 93]
Common poppy; Rate 62 g/ha, 0 to 100 scale
  Plant response rating, Common poppy: 0
Common poppy; 0 to 100 scale
  Plant response rating, Comnion poppy: 0
Common poppy; [9]
  Plant response rating, Common poppy: 0
Rape [1]; [10]
  Plant response rating, Rape: 0
Rape [1]; [11]
  Plant response rating, Rape: 0
Rape [1]; Rate 250 g/ha, 0 to 100 scale
  Plant response rating, Rape: 10
Rape [2]; Rate 62 g/ha, 0 to 100 scale
  Plant response rating, Rape: 0
Rape [2]; Rate 125 g/ha, 0 to 100 scale
  Plant response rating, Rape: 0
Rape [2]; [9]
  Plant response rating, Rape: 0
chickweed; [10]
  Plant response rating, Chickweed: 60
chickweed; [11]
  Plant response rating, Chickweed: 20
chickweed; Rate 250 g/ha, 0 to 100 scale
  Plant response rating, Chickweed: 100
Sugar beet [3]; Rate 62 g/ha, 0 to 100 scale
  Plant response rating, Sugar beet: 0
Sugar beet [3]; Rate 125 g/ha, 0 to 100 scale
  Plant response rating, Sugar beet: 0
Sugar beet [3]; [9]
  Plant response rating, Sugar beet: 0
Russian thistle [4]; Rate 62 g/ha, 0 to 100 scale
  Plant response rating, Russian thistle: 0
Russian thistle [4]; Rate 125 g/ha, 0 to 100 scale
  Plant response rating, Russian thistle: 0
Russian thistle [4]; [9]
  Plant response rating, Russian thistle: 0
Black nightshade; Rate 62 g/ha, 0 to 100 scale
  Plant response rating, Blk nightshade: 0
Black nightshade; Rate 125 g/ha, 0 to 100 scale
  Plant response rating, Blk nightshade: 0
Black nightshade; [9]
  Plant response rating, Blk nightshade: 50
Annual bluegrass; [10]
  Plant response rating, Annual bluegras: 10
Annual bluegrass; [11]
  Plant response rating, Annual bluegras: 50
Annual bluegrass; Rate 250 g/ha, 0 to 100 scale
  Plant response rating, Annual bluegras: 65
blackgrass; Rate 62 g/ha, 0 to 100 scale
  Plant response rating, Blackgrass: 10
blackgrass; Rate 125 g/ha, 0 to 100 scale
  Plant response rating, Blackgrass: 30
blackgrass; [9]
  Plant response rating, Blackgrass: 40
Downy brome; Rate 62 g/ha
  Plant response rating, Downy brome: 0
Downy brome; Rate 125 g/ha
  Plant response rating, Downy brome: 0
Downy brome
  Plant response rating, Downy brortie: 0
deadnettle; [10]
  Plant response rating, Deadnettle: 10
deadnettle; [11]
  Plant response rating, Deadnettle: 10
deadnettle; Rate 250 g/ha, 0 to 100 scale
  Plant response rating, Deadnettle: 85
Russian thistle [5]; [10]
  Plant response rating, Russian thistle: 0
Russian thistle [5]; [11]
  Plant response rating, Russian thistle: 0
Russian thistle [5]; Rate 250 g/ha, 0 to 100 scale
  Plant response rating, Russian thistle: 0
Sugar beet [6]; [10]
  Plant response rating, Sugar beet: 0
Sugar beet [6]; [11]
  Plant response rating, Sugar beet: 10
Sugar beet [6]; Rate 250 g/ha, 0 to 100 scale
  Plant response rating, Sugar beet: 5
Field violet [7]; Rate 62 g/ha, 0 to 100 scale
  Plant response rating, Field violet: 0
Field violet [7]; Rate 125 g/ha, 0 to 100 scale
  Plant response rating, Field violet: 0
Field violet [7]; [9]
  Plant response rating, Field violet: 0
windgrass
  Plant response rating, Windgrass: 60
Field violet [8]; [10]
  Plant response rating, Field violet: 0
Field violet [8]; [11]
  Plant response rating, Field violet: 10
Field violet [8]; Rate 250 g/ha, 0 to 100 scale
  Plant response rating, Field violet: 30
Littleseed canarygrass; [10]
  Plant response rating, LS canarygrass: 40
Littleseed canarygrass; [11]
  Plant response rating, LS canarygrass: 80
Littleseed canarygrass; Rate 250 g/ha, 0 to 100 scale
  Plant response rating, LS canarygrass: 60

## CCn1c(=O)on(C(=O)N(c2ccc(Cl)cc2)C(C)C)c1=O [Compound 108]
Common poppy; Rate 62 g/ha, 0 to 100 scale
  Plant response rating, Common poppy: 10
Common poppy; 0 to 100 scale
  Plant response rating, Comnion poppy: 0
Common poppy; [9]
  Plant response rating, Common poppy: 0
Rape [1]; [10]
  Plant response rating, Rape: 40
Rape [1]; [11]
  Plant response rating, Rape: 60
Rape [1]; Rate 250 g/ha, 0 to 100 scale
  Plant response rating, Rape: 50
Rape [2]; Rate 62 g/ha, 0 to 100 scale
  Plant response rating, Rape: 60
Rape [2]; Rate 125 g/ha, 0 to 100 scale
  Plant response rating, Rape: 40
Rape [2]; [9]
  Plant response rating, Rape: 50
chickweed; [10]
  Plant response rating, Chickweed: 30
chickweed; [11]
  Plant response rating, Chickweed: 40
chickweed; Rate 250 g/ha, 0 to 100 scale
  Plant response rating, Chickweed: 30
Sugar beet [3]; Rate 62 g/ha, 0 to 100 scale
  Plant response rating, Sugar beet: 5
Sugar beet [3]; Rate 125 g/ha, 0 to 100 scale
  Plant response rating, Sugar beet: 10
Sugar beet [3]; [9]
  Plant response rating, Sugar beet: 20
Russian thistle [4]; Rate 62 g/ha, 0 to 100 scale
  Plant response rating, Russian thistle: 0
Russian thistle [4]; Rate 125 g/ha, 0 to 100 scale
  Plant response rating, Russian thistle: 0
Russian thistle [4]; [9]
  Plant response rating, Russian thistle: 0
Black nightshade; Rate 62 g/ha, 0 to 100 scale
  Plant response rating, Blk nightshade: 20
Black nightshade; Rate 125 g/ha, 0 to 100 scale
  Plant response rating, Blk nightshade: 30
Black nightshade; [9]
  Plant response rating, Blk nightshade: 50
Scentless chamomile; [10]
  Plant response rating, Scentless chamo: 50
Scentless chamomile; [11]
  Plant response rating, Scentless chamo: 60
Scentless chamomile; Rate 250 g/ha, 0 to 100 scale
  Plant response rating, Scentless chamo: 80
Annual bluegrass; [10]
  Plant response rating, Annual bluegras: 20
Annual bluegrass; [11]
  Plant response rating, Annual bluegras: 60
Annual bluegrass; Rate 250 g/ha, 0 to 100 scale
  Plant response rating, Annual bluegras: 60
blackgrass; Rate 62 g/ha, 0 to 100 scale
  Plant response rating, Blackgrass: 5
blackgrass; Rate 125 g/ha, 0 to 100 scale
  Plant response rating, Blackgrass: 5
blackgrass; [9]
  Plant response rating, Blackgrass: 10
Downy brome; Rate 62 g/ha
  Plant response rating, Downy brome: 0
Downy brome; Rate 125 g/ha
  Plant response rating, Downy brome: 0
Downy brome
  Plant response rating, Downy brortie: 0
deadnettle; [10]
  Plant response rating, Deadnettle: 10
deadnettle; [11]
  Plant response rating, Deadnettle: 10
deadnettle; Rate 250 g/ha, 0 to 100 scale
  Plant response rating, Deadnettle: 40
Russian thistle [5]; [10]
  Plant response rating, Russian thistle: 0
Russian thistle [5]; [11]
  Plant response rating, Russian thistle: 0
Russian thistle [5]; Rate 250 g/ha, 0 to 100 scale
  Plant response rating, Russian thistle: 15
Sugar beet [6]; [10]
  Plant response rating, Sugar beet: 60
Sugar beet [6]; [11]
  Plant response rating, Sugar beet: 40
Sugar beet [6]; Rate 250 g/ha, 0 to 100 scale
  Plant response rating, Sugar beet: 60
Field violet [7]; Rate 62 g/ha, 0 to 100 scale
  Plant response rating, Field violet: 0
Field violet [7]; Rate 125 g/ha, 0 to 100 scale
  Plant response rating, Field violet: 0
Field violet [7]; [9]
  Plant response rating, Field violet: 20
windgrass
  Plant response rating, Windgrass: 80
Field violet [8]; [10]
  Plant response rating, Field violet: 15
Field violet [8]; [11]
  Plant response rating, Field violet: 0
Field violet [8]; Rate 250 g/ha, 0 to 100 scale
  Plant response rating, Field violet: 20
Littleseed canarygrass; [10]
  Plant response rating, LS canarygrass: 60
Littleseed canarygrass; [11]
  Plant response rating, LS canarygrass: 50
Littleseed canarygrass; Rate 250 g/ha, 0 to 100 scale
  Plant response rating, LS canarygrass: 70

From patent US6737383B1, “Herbicidal oxadiazolidines” (priority 1999, dated 2004)
